In patent US10857167B2, “Use of oligosaccharide compositions to enhance weight gain” (Children's Hospital Medical Center, priority 2015, dated 2020):

Tested on: distal small bowel gene expression
Assay: RNA sequencing / transcriptional analysis of small bowel 56 days after ICR (2′-FL signature response)
Type: in vivo, mouse
Excerpt: Luminal small bowel contents were expressed into AllProtect Tissue Reagent (Qiagen Inc, CA). Bacterial DNA was extracted using the AllPrep DNA/RNA Mini Kit (Qiagen Inc, CA), according to kit instructions and prior to sequencing (described below). Small bowel tissue samples for RNA were placed into RNA Later (Life Technologies, NY). RNA extraction was accomplished following Qiagen RNeasy Plus Kit instruction (Qiagen Inc, CA). All nucleic acid samples were then stored at -80 Celsius until sequenced (described below). Transcriptional analysis was carried out on resected and harvested small bowel samples obtained from operated mice taken to 8 weeks. Murine RNA sequencing libraries were prepared from approximately 1.5 μg RNA using the TruSeq RNA Sample Preparation Kit (Illumina, Calif.) and sequenced using the HiSeq 2000 Sequencing System (Illumina, Calif.) with single-end 50 bp reads. Following removal of primers and barcodes, sequences were aligned to the mm10 genome using reference annotations from UCSC (Rosenbloom et al. (2015) Nucleic acids research 43: […]-681) (n=36,186 entities). Aligned reads were quantified and used to compute reads per kilobase per million mapped reads (RPKM); raw counts were then normalized using the DESeq algorithm and each harvested sample was baselined to its own resected sample. A filter was applied to the data, requiring at least three reads in all samples of at least one of the four experimental conditions (n=14,489 entities). The data discussed in this publication have been deposited in NCBI's Gene Expression Omnibus and are accessible through NCBI Gene Expression Omnibus (GEO) Series accession number GSE72590. Edgar et al. (2002) Nucleic acids research 30: 207-210. In order to characterize the impact of 2'-FL supplementation while accounting for the effect of ileoecal resection, a t-test was applied between resected and harvested samples within control and experimental animals. Significance was set at a p-value of ≤0.05 and a fold change of 3, which generated 2,576 differentially regulated entities across two comparisons. Gene set unions and intersections of the control and experimental gene sets were identified through Venn diagrams. From the master list, the gene list specific to animals supplemented with 2'-FL were removed in order to identify genes differentially regulated only by ICR (n=546 entities); this gene set characterizes the adaptive response. Further, the 2'-FL response (n=2,030 entities) was identified by removing the adaptive response signature described above from the master list, leaving only genes regulated by 2'-FL supplementation after ICR which were not found in the non-supplemented adaptive response. Heatmaps were generated using hierarchical clustering with the Pearson's Centered distance metric and the average linkage rule; both entities and samples were clustered. All genomic analyses described above were performed in Strand NGS (Strand Life Sciences, CA). Gene list functional enrichment was initially discovered using ToppFun, a member of the ToppGene Suite. Chen et al. (2009) Nucleic acids research 37: […]-311. No statistical correction was selected. Gene lists were further analyzed using ClueGO, a plugin for Cytoscape designed to decipher functionally grouped gene ontology and pathway annotation networks. Bindea et al. (2009) Bioinformatics 25: 1091-1093. At the time of data analysis, the annotation files were updated from sources to Jan. 1, 2015. “GO Term Fusion” was enabled to manage ontologic term redundancy and network specificity was set to medium. Results were restricted to pathways with p≤0.05 using Benjamini-Hochberg correction and Kappa scoring was set to 0.4. Biocyc annotations were assigned a rectangle, gene ontology biologic processes were assigned an ellipse, and […] annotations were assigned a diamond shape. No meaning was assigned to size or color. […]

[1] = 2′-FL signature response, harvested vs resected small bowel, 8 weeks

C[C@@H]1O[C@@H](O[C@H]2[C@H](O[C@H]3[C@H](O)[C@@H](O)C(O)O[C@@H]3CO)O[C@H](CO)[C@H](O)[C@@H]2O)[C@@H](O)[C@H](O)[C@@H]1O (stereo partly drawn) [2′-FL, 2′-fucosyllactose]
Fgf15 fold change (FC) [1]: −64.6 | Fmr1nb fold change (FC) [1]: 12.7 | Hemt1 fold change (FC) [1]: 15.4 | Irs2 fold change (FC) [1]: −43.6 | Map3k12 fold change (FC) [1]: 16.2 | Mcpt2 fold change (FC) [1]: 13.4 | P2ry4 fold change (FC) [1]: −22.2 | Rnf150 fold change (FC) [1]: −20.4 | Tmem202 fold change (FC) [1]: 18.0 | Ttc28 fold change (FC) [1]: −24.2 | Fold Change (Pre- to Post-op) (0610040B10Rik): 4.168 | Fold Change (Pre- to Post-op) (1700019L03Rik): 4.251 | Fold Change (Pre- to Post-op) (1700020N01Rik): 4.446 | Fold Change (Pre- to Post-op) (1810011O10Rik): 4.443 | Fold Change (Pre- to Post-op) (1810059H22Rik): 4.23 | Fold Change (Pre- to Post-op) (2010308F09Rik): 14.34 | Fold Change (Pre- to Post-op) (3300005D01Rik): 4.41 | Fold Change (Pre- to Post-op) (9430038I01Rik): 6.474 | Fold Change (Pre- to Post-op) (Atp5j2): 4.445 | Fold Change (Pre- to Post-op) (Atpif1): 4.145 | Fold Change (Pre- to Post-op) (Bambi-ps1): 4.353 | Fold Change (Pre- to Post-op) (Casq1): 4.38 | Fold Change (Pre- to Post-op) (Cd320): 4.215 | Fold Change (Pre- to Post-op) (Coa4): 4.375 | Fold Change (Pre- to Post-op) (Cox7a1): 6.411 | Fold Change (Pre- to Post-op) (Dgcr6): 4.237 | Fold Change (Pre- to Post-op) (Dnah2): 4.392 | Fold Change (Pre- to Post-op) (Dynlt1b): 4.376 | Fold Change (Pre- to Post-op) (Dynlt1c): 4.148 | Fold Change (Pre- to Post-op) (Elof1): 4.343 | Fold Change (Pre- to Post-op) (Fam216a): 4.147 | Fold Change (Pre- to Post-op) (Gm5485): 4.139 | Fold Change (Pre- to Post-op) (Gm6251): 4.383 | Fold Change (Pre- to Post-op) (Gm8274): 4.331 | Fold Change (Pre- to Post-op) (Gm10433): 4.377 | Fold Change (Pre- to Post-op) (Gm10451): 4.182 | Fold Change (Pre- to Post-op) (Hemt1): 15.36 | Fold Change (Pre- to Post-op) (Hint1): 4.482 | Fold Change (Pre- to Post-op) (Hscb): 4.227 | Fold Change (Pre- to Post-op) (Hspb2): 4.189 | Fold Change (Pre- to Post-op) (Ift20): 4.337 | Fold Change (Pre- to Post-op) (Med11): 4.235 | Fold Change (Pre- to Post-op) (Mpc2): 4.128 | Fold Change (Pre- to Post-op) (Ndufa7): 4.362 | Fold Change (Pre- to Post-op) (Ndufaf5): 4.338 | Fold Change (Pre- to Post-op) (Ndufb7): 4.217 | Fold Change (Pre- to Post-op) (Oaz1): 4.347 | Fold Change (Pre- to Post-op) (Ormdl1): 4.184 | Fold Change (Pre- to Post-op) (Pstk): 4.142 | Fold Change (Pre- to Post-op) (Rabl5): 4.448 | Fold Change (Pre- to Post-op) (Rbp1): 4.364 | Fold Change (Pre- to Post-op) (Rilpl2): 4.235 | Fold Change (Pre- to Post-op) (Rpl34): 4.37 | Fold Change (Pre- to Post-op) (Rps15a-ps4): 4.372 | Fold Change (Pre- to Post-op) (Rps24): 4.131 | Fold Change (Pre- to Post-op) (Rps25): 4.218 | Fold Change (Pre- to Post-op) (S100a6): 4.237 | Fold Change (Pre- to Post-op) (Sec22a): 4.221 | Fold Change (Pre- to Post-op) (Sh2d1b1): 4.118 | Fold Change (Pre- to Post-op) (Smim4): 4.229 | Fold Change (Pre- to Post-op) (Smim6): 4.424 | Fold Change (Pre- to Post-op) (Tm6sf1): 4.173 | Fold Change (Pre- to Post-op) (Tnfsf11): 4.335 | Fold Change (Pre- to Post-op) (Wfdc17): 4.382 | Fold Change (Pre- to Post-op) (Zfp433): 4.119 | Fold Change (Pre- to Post-op) (Zswim7): 4.475 | Fold Change (Pre- to Post-op) (gene AI414108): −9.671 | Fold Change (Pre- to Post-op) (gene Agap2): −9.801 | Fold Change (Pre- to Post-op) (gene Ankrd52): −10.58 | Fold Change (Pre- to Post-op) (gene Apba1): −18.88 | Fold Change (Pre- to Post-op) (gene Atp1a2): −18.47 | Fold Change (Pre- to Post-op) (gene Atp1b2): −18.71 | Fold Change (Pre- to Post-op) (gene Bcl9l): −10.08 | Fold Change (Pre- to Post-op) (gene Car3): −9.901 | Fold Change (Pre- to Post-op) (gene Chd7): −11.26 | Fold Change (Pre- to Post-op) (gene D830031N03Rik): −15.57 | Fold Change (Pre- to Post-op) (gene Ebf1): −10.39 | Fold Change (Pre- to Post-op) (gene Fgf15): −64.61 | Fold Change (Pre- to Post-op) (gene Flt1): −15.79 | Fold Change (Pre- to Post-op) (gene Fscn1): −10.73 | Fold Change (Pre- to Post-op) (gene Gltscr1): −13.3 | Fold Change (Pre- to Post-op) (gene Irs2): −43.6 | Fold Change (Pre- to Post-op) (gene Ldoc1l): −10.25 | Fold Change (Pre- to Post-op) (gene Leprel1): −9.903 | Fold Change (Pre- to Post-op) (gene Lyst): −9.938 | Fold Change (Pre- to Post-op) (gene Nav2): −12.39 | Fold Change (Pre- to Post-op) (gene Nfix): −16.561 | Fold Change (Pre- to Post-op) (gene Nos1ap): −10.38 | Fold Change (Pre- to Post-op) (gene P2ry4): −22.22 | Fold Change (Pre- to Post-op) (gene Parvb): −9.684 | Fold Change (Pre- to Post-op) (gene Peg3): −15.37 | Fold Change (Pre- to Post-op) (gene Plin1): −16.34 | Fold Change (Pre- to Post-op) (gene Polr2a): −18.45 | Fold Change (Pre- to Post-op) (gene Ptpru): −10.01 | Fold Change (Pre- to Post-op) (gene Rgs9): −9.821 | Fold Change (Pre- to Post-op) (gene Rnf150): −20.41 | Fold Change (Pre- to Post-op) (gene Scd1): −20.28 | Fold Change (Pre- to Post-op) (gene Sema3g): −18.02 | Fold Change (Pre- to Post-op) (gene Shank3): −15.22 | Fold Change (Pre- to Post-op) (gene Soga1): −14.4 | Fold Change (Pre- to Post-op) (gene Spen): −14.44 | Fold Change (Pre- to Post-op) (gene Tenm3): −14.72 | Fold Change (Pre- to Post-op) (gene Tiam1): −15.28 | Fold Change (Pre- to Post-op) (gene Tmem151a): −10.06 | Fold Change (Pre- to Post-op) (gene Tomm6os): −12.41 | Fold Change (Pre- to Post-op) (gene Trerf1): −9.926 | Fold Change (Pre- to Post-op) (gene Trim56): −9.711 | Fold Change (Pre- to Post-op) (gene Ttc28): −24.22 | Fold Change (Pre- to Post-op) (gene Zbed6): −9.794 | Fold Change (Pre- to Post-op) (gene Zfp609): −11.22 | number of downregulated entities of the 2′-FL signature response (small bowel 56 days after ICR): 1,247
